{"source": "patent US10722516B2", "about": "“Use of landiolol hydrochloride in the long-term treatment of tachyarrhythmias” (AOP Orphan Pharmaceuticals AG, priority 2013, dated 2020)", "origin": "cited, not measured here", "key": {"[1]": {"conditions": "after discontinuing the drug; cited from earlier work"}, "[2]": {"biological_target": "adrenergic β1 adrenoreceptor (Homo sapiens, UniProt P08588)", "sequence (P08588 whole entry, the tested form may be a part)": "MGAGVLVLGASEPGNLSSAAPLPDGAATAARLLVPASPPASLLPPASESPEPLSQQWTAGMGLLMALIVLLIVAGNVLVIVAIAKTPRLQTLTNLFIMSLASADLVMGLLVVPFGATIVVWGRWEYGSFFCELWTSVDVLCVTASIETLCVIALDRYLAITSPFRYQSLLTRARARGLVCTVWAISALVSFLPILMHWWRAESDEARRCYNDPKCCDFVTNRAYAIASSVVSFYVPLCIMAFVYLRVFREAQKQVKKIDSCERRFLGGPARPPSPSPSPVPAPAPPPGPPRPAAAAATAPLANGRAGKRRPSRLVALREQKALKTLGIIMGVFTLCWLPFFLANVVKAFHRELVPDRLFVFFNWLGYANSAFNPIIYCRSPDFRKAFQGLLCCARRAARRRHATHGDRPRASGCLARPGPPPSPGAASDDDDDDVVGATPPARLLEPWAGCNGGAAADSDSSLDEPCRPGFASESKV", "conditions": "bolus followed by a continuous infusion; cited from earlier work"}}, "note": "Structures can show the parent of a compound that is named as a salt.", "data": [{"smiles": "COC(=O)CCc1ccc(OCC(O)CNC(C)C)cc1", "note": "(stereo not drawn) [Esmolol, Esmolol hydrochloride]", "values": [{"measurement": "time to resolution of hypotension symptoms", "setting": "[1]", "result": "≤ 30", "unit": "min"}, {"measurement": "onset of activity", "setting": "[2]", "result": "≤ 2", "unit": "min"}, {"measurement": "time to 90% of steady-state beta-blockade", "setting": "[2]", "result": "≤ 5", "unit": "min"}]}]}
